Data set [1] deals with ob/ob mice nonalcoholic steatohepatitis (NASH) model. The data set can be described thus: ob/ob mice high-fat diet NASH model, 6 weeks dosing: liver pathological scores. The conditions noted are these: 10 nmol/kg twice a week, Mean ± SEM, n = 10. The data set is classed as in vivo. The procedure: (§1) 70 Male ob/ob mice (Changzhou Cavens Laboratory Animal Co., Ltd.) weighed about 43-45 g were fed with high-fat diet (D12492, Research Diets, Inc., New Brunswick, NJ) for 9 weeks to establish a nonalcoholic steatohepatitis (NASH) model. 3 Weeks after HFD feeding, the therapeutic efficacy of the compounds dual target fusion protein 1 #, Fc-FGF21 (single target 1 #) and Dulaglutide were tested after 6 weeks of dosing. The experimental animals were randomly divided into 5 groups according to body weight and blood glucose after […] of HFD feeding: the model group (group-1, n=10), the dual target fusion protein 1 #-3 nmol/kg group (group-2, n=10); the dual target fusion protein 1 #-10 nmol/kg group (group-3, […]); Fc-FGF21-10 nmol/kg group (group-4, n=10); Dulaglutide-10 nmol/kg (group-5, n=10). The model group was administrated PBS. The groups of dual target fusion protein 1 #, Fc-FGF21, and Dulaglutide were administrated twice a week for a total of 6 weeks. Feed intake, water intake and body weight of animals were recorded every two days after the start of HFD feeding until the end of the experiment. Blood glucose was measured at 0, 2, 7, 24, 48, 72 hours after the first administration, and then twice a week. At the end of the experiment, the animals were fasted to detect fasting blood glucose.

Data set [2] has the same test system. The data set can be described thus: ob/ob mice high-fat diet NASH model, 6 weeks dosing: serum lipids, liver weight, liver function, liver lipids. The conditions noted are these: 10 nmol/kg. The data set is classed as in vivo. The procedure: as §1
Data set [3] has the same test system. The data set is described as follows: ob/ob mice high-fat diet NASH model, 6 weeks dosing: blood glucose and body weight. Type of data set: in vivo. The conditions noted are these: 10 nmol/kg. The protocol: as §1
In data set [4] the test system is high-fat-induced C57BL/6 mice model. The data set is described as follows: High-fat diet induced C57BL/6 mice: serum lipids, ALT/AST, liver weight, liver homogenate lipids. Type of data set: in vivo. The conditions noted are these: 16th week of administration. From the text:
(§2) After 16 weeks of high-fat diet feeding (D12492, Research Diets, Inc., New Brunswick, NJ), C57BL/6 mice (purchased from Hunan SJA Laboratory Animal Co., Ltd.) were randomly divided into vehicle group or treatment group according to the measured blood glucose and body weight. The study included control group with normal diet, high-fat diet Model group was administrated with vehicle PBS, subcutaneous injection of semaglutide once a day (QD) 10 nmol/kg, dual target 1 # was administrated twice weekly (BIW), the low dose was 3 nmol/kg and the high dose was 10 nmol/kg, 7 animals in each group. The drug groups were administrated the corresponding drugs according to the administration frequency for 16 consecutive weeks, and the high-fat diet was continued during the administration period until the end of the experiment. The random blood glucose, body weight and intraperitoneal glucose tolerance IPGTT of mice were monitored.
(§3) At the end of the experiment of Example 4, that is, the 16th week of administration, the animals were fasted overnight and could drink water. After the animals were weighed, the orbital blood was collected, serum was separated, and serum lipids (TG (triglyceride), TC (total cholesterol)) and liver function indexes ALT (alanine aminotransferase)/AST (aspartate aminotransferase) were detected by an automatic biochemical analyzer. Serum insulin levels were detected by Elisa kit, and the HOMA-IR index was calculated according to the formula, that is, HOMA-IR=fasting blood glucose (blood glucose value at 0 time of IPGTT in the 16th week)×fasting insulin/22.5. After the blood was collected, the liver, subcutaneous fat, epididymal fat and perirenal fat were dissected and weighed. About 40-60 mg of liver tissue was weighed and put into a homogenization tube, 1 mL of absolute ethanol was added for homogenization, then the homogenate was taken and centrifuged at 4° C., 3,500 rpm for 10 min. The supernatant was taken, and the concentrations of TG and TC in the supernatant were detected by an automatic biochemical analyzer, and then the contents of TG and TC were calculated according to the weighed liver weight

Data set [5] relates to high-fat diet induced C57BL/6 mice model. The data set can be described thus: High-fat diet induced C57BL/6 mice: liver histopathology NAS and fibrosis scores. Type of data set: in vivo. The conditions noted are these: 10 nmol/kg (semaglutide QD, dual target 1# BIW), 16 weeks, Mean ± SD, n = 6-7.
From the text: as §2
The left lobe of the liver obtained by dissection in Example 5 was immersed in a 50 mL centrifuge tube filled with formalin to prepare liver disease sections, and the formalin liver tissue was subjected to wax block making, sectioning, HE staining, and HE staining slices were mailed to Suzhou KCl Co., Ltd. for NAS scoring; fibrosis was assessed by Sirius red staining, and the scores were scored according to the severity of fibrosis, with a score of 1-3. Liver histopathological changes were observed under light microscope and NAS/fibrosis scores were performed.

Data set [6] concerns high-fat-induced C57BL/6 mice model. The data set is described as follows: High-fat diet induced C57BL/6 mice, 16 weeks dosing: random blood glucose, IPGTT, fasting glucose, insulin, HOMA-IR, body weight, fat mass. The data set is classed as in vivo.
From the text: as §2, §3

For data set [7] the following is noted: mouse models; cited from earlier work.
The mark [8] stands for this setting: 10 nmol/kg (semaglutide QD, dual target 1# BIW), 16 weeks, Mean ± SD, n = 6-7.

As for Dulaglutide, in data set [1], the “Inflammatory infiltration Scores” value is listed as 0.57 ± 0.13, the “Liver ballooning Scores” value stood at 0.43 ± 0.26, the NAS scores was 3.80 ± 0.41 and the “Steatosis Scores” value came out at 2.80 ± 0.07. In data set [2], the “level of serum TG compared with the model group” value is given as “significantly decreased” and the “serum TC level compared with the model group” value is “not significantly decreased”. Further, in data set [3] (D1 to D43), the “weight growth rate compared with the model group” value is recorded as “decreased significantly”. Also, the “average weight loss rate” value in data set [3] (D1 to D43, p<0.01 or 0.001) is 8.9%. The “blood glucose level versus model group” value in data set [3] (after 5 days, P>0.05) is on record as “less different from that of the model group”.
For the molecule Semaglutide, in data set [4], the “TG in liver homogenate compared with the Model” value is “significantly reduce”, the “liver absolute weight compared with the Model” value was “significantly reduce”, the “serum ALT level compared with the Model” value is “significantly reduce” and the “serum AST level compared with the Model” value was “significantly reduce”. Also, in data set [4], the “serum TC compared with Model” value is reported as “significantly reduce” and the “serum TG compared with Model” value is “significantly reduce”. Also, the NAS total score in data set [5] came out at 0.0 ± 0.0. In addition, the “Fibrosis Manual Score” value in data set [5] (Sirius red, score 1-3) came to 1.5 ± 0.5. In data set [5] (score), this molecule displayed a Balloon degeneration of 0.0 ± 0.0, an Inflammation of 0.0 ± 0.0 and a Liver steatosis of 0.0 ± 0.0. Moreover, in data set [6] (setting [8]), the Epididymal fat came to 1.0 ± 0.5 g, the Perirenal fat is on record as 0.6 ± 0.6 g, the Subcutaneous fat is given as 0.9 ± 1.0 g and the “Total Fat” value was 2.6 ± 2.1 g. Further, the weight loss in data set [6] (10 nmol/kg, 16 weeks) is reported as 24.3%. The “blood glucose AUCO-72h after the first administration, compared with the Model group” value in data set [6] (10 nmol/kg, p<0.05) was “significantly reduce”. Further, in data set [6] (16 weeks, P<0.001), the “body weight growth rate compared with the Model group” value was “significantly reduce”. Also, the “insulin level compared with Model” value in data set [6] (end of experiment, serum, P<0.001) is on record as “significantly reduce”. Further, the “HOMA-IR index compared with Model” value in data set [6] (end of experiment, P<0.001) was “significantly reduce”. Moreover, in data set [6] (weeks 2, 8 and 16, 30-90 min or 15-90 min after glucose), the “IPGTT: blood glucose after glucose administration and area under the blood glucose curve, compared with Model” value was “significantly reduce”.

B1: FGF21: member of the FGF family (fibroblast growth factors); native FGF21 with short half-life (protein, UniProt Q9NSA1 29-209, looked up)
Fibroblast growth factor 21: HPIPDSSPLLQFGGQVRQRYLYTDDAQQTEAHLEIREDGTVGGAADQSPESLLQLKALKPGVIQILGVKTSRFLCQRPDGALYGSLHFDPEACSFRELLLEDGYNVYQSEAHGLPLHLPGNKSPHRDPAPRGPARFLPLPGLPPALPEPPGILAPQPPDVGSSDPLSMVGPSQGRSPSYAS
For the molecule B1, the half-life entry in data set [7] is listed as “about 1 h”.
